Test results as given in PMC9947563, “Identification of the molecular determinants of antagonist potency in the allosteric binding pocket of human P2X4” (Frontiers in Pharmacology, 2023).
Where a chain is given by its changes, count along the chain named. Read-outs that look alike come from different tables or passages of the source. Values belong to the molecule of their own block, whether it stands above or below them.

How the values were obtained:
hP2X4 = settings: read-out: hP2X4 IC50, cited from earlier work
P2X4 = system: P2X4; parameters: method as in Hernandez-Olmos et al., 2012; settings: ref Hernandez-Olmos et al., 2012; cited from earlier work
[1] = biological target: T1, human P2X4 wild type (h4-WT) (Homo sapiens, UniProt Q99571); test: ATP-induced calcium influx (Fluo-4) in 1321N1 cells stably expressing human P2X4 wild type; format: cell-based; settings: 1321N1 cells, human P2X4 WT
T1 construct: expressed in transfected cells; host or cells: 1321N1 astrocytoma cells, stably transfected
T1 sequence (Q99571 1-388): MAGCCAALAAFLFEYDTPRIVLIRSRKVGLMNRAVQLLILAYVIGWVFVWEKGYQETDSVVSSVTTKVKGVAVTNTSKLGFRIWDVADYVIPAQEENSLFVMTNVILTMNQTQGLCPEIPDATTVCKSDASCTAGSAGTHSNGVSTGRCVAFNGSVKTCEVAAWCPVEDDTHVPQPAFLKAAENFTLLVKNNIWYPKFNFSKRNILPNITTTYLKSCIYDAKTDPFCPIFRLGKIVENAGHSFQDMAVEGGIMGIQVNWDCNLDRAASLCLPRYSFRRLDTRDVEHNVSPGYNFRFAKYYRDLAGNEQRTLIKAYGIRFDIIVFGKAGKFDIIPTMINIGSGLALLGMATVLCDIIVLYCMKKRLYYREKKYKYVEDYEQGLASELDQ
Protocol: (§1) 1321N1 astrocytoma cells were cultured (at 37°C, 5% CO2) in Dulbecco’s modified Eagle’s medium (DMEM/F-12 with Glutamax) supplemented with 10% foetal bovine serum (FBS) and 200 unit/mL of penicillin and streptomycin antibiotics (Fisher Scientific). Stably transfected clones were grown in DMEM/F-12 with Glutamax medium supplemented with G-418 (Geneticin®, Fisher Scientific), 600 μg/mL and 150 μg/mL during selection and maintenance, respectively. […] Each cell line was then tested for P2X4 receptor expression by Western blot and for functionality using the Ca^2+ influx assay.
(§2) Cells were plated the day before assay into poly-lysine-coated 96-well plates at 40–55,000 cells/mL. […] Prior to assay, buffer was replaced with fresh modified Ringer’s buffer containing probenecid but not the dye. […] A Fluoroskan Ascent FL plate reader (Fisher Scientific) equipped with a solution dispenser and an appropriate filter pair (excitation: 485 nm, emission: 538 nm) was used to record 5-s baseline followed by P2X4-mediated calcium influx measurements for 20–25 s after ATP stimulation (final concentration ranging between 0.03 and 100 μM in buffered solution, pH = 7.4). The collected responses were normalized to the first data-point recorded after ATP injection.
(§3) Data processing and data analysis were carried out using Graphpad Prism version 6 for Mac. Figures are presented as Mean ± SEM. […] When comparing data obtained from multiple independent experiments (N), each dataset was normalized to the mean value obtained for the vehicle control.

[2] = biological target: T2, rat P2X4 wild type (r4-WT) (Rattus norvegicus, UniProt P51577); test: ATP-induced calcium influx (Fluo-4) in 1321N1 cells stably expressing rat P2X4 wild type; format: cell-based; settings: 1321N1 cells, rat P2X4 WT
T2 construct: expressed in transfected cells; host or cells: 1321N1 astrocytoma cells, stably transfected
T2 sequence (P51577 1-388): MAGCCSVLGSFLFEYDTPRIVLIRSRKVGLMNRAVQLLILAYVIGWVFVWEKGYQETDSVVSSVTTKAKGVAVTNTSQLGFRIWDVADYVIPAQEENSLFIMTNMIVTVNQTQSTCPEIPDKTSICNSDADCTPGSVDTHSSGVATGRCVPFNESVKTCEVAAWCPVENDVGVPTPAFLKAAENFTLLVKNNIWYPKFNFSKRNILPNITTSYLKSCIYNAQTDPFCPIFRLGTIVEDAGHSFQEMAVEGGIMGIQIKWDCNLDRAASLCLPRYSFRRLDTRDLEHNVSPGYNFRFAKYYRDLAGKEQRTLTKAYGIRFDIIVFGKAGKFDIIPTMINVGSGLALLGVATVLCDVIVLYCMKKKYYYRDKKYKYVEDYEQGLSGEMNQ
Protocol: (§4) 1321N1 astrocytoma cells were cultured (at 37°C, 5% CO2) in Dulbecco’s modified Eagle’s medium (DMEM/F-12 with Glutamax) supplemented with 10% foetal bovine serum (FBS) and 200 unit/mL of penicillin and streptomycin antibiotics (Fisher Scientific). Stably transfected clones were grown in DMEM/F-12 with Glutamax medium supplemented with G-418 (Geneticin®, Fisher Scientific), 600 μg/mL and 150 μg/mL during selection and maintenance, respectively. FuGene HD Transfection Reagent (Promega) was used according to the manufacturer’s protocol for the generation of stable cell line expressing h4-WT, r4-WT, h4-I312T, and r4-T312I. Each cell line was then tested for P2X4 receptor expression by Western blot and for functionality using the Ca^2+ influx assay.
(§5) Cells were plated the day before assay into poly-lysine-coated 96-well plates at 40–55,000 cells/mL. To load cells with calcium-sensitive fluorescent dye, culture medium was replaced with modified Ringer’s buffer (140 mM NaCl, 10 mM HEPES, 10 mM Glucose, 1 mM MgCl2, 1 mM CaCl2, 2.5 mM KCl, 0.5% BSA, pH = 7.4) containing 2.6 μM FLUO4-AM (Fisher Scientific) and 250 μM probenecid (Sigma), and cells were incubated for 20–30 min. Prior to assay, buffer was replaced with fresh modified Ringer’s buffer containing probenecid but not the dye. […] A Fluoroskan Ascent FL plate reader (Fisher Scientific) equipped with a solution dispenser and an appropriate filter pair (excitation: 485 nm, emission: 538 nm) was used to record 5-s baseline followed by P2X4-mediated calcium influx measurements for 20–25 s after ATP stimulation (final concentration ranging between 0.03 and 100 μM in buffered solution, pH = 7.4). The collected responses were normalized to the first data-point recorded after ATP injection.
(§6) Data processing and data analysis were carried out using Graphpad Prism version 6 for Mac. Figures are presented as Mean ± SEM. Statistical significance of any difference observed between samples was calculated through one-way ANOVA followed by Dunnett’s multiple comparisons test with a single pooled variance (control, unless otherwise specified) or, when comparing only two sets of data, using an unpaired t-test with Welch’s correction. When comparing data obtained from multiple independent experiments (N), each dataset was normalized to the mean value obtained for the vehicle control.

[3] = biological target: T3, human P2X4 I312T (h4-I312T) (Homo sapiens, UniProt Q99571, I312T); test: ATP-induced calcium influx (Fluo-4) in 1321N1 cells stably expressing human P2X4 I312T; format: cell-based; settings: 1321N1 cells, human P2X4 I312T
T3 construct: expressed in transfected cells; host or cells: 1321N1 astrocytoma cells, stably transfected
T3 sequence (Q99571 1-388 I312T): T1 sequence (Q99571 1-388) with I312T
Protocol: Plasmid encoding rat P2X4 (r4-WT) ([Royle et al., 2005]) was a kind gift from Ruth Murrell-Lagnado, whilst that encoding human P2X4 with a C-terminal (His)10 tag has been reported previously ([Young et al., 2008]).
as §1, §2, §3

[4] = biological target: T4, rat P2X4 T312I (r4-T312I) (Rattus norvegicus, UniProt P51577, T312I); test: ATP-induced calcium influx (Fluo-4) in 1321N1 cells stably expressing rat P2X4 T312I; format: cell-based; settings: 1321N1 cells, rat P2X4 T312I
T4 construct: expressed in transfected cells; host or cells: 1321N1 astrocytoma cells, stably transfected
T4 sequence (P51577 1-388 T312I): T2 sequence (P51577 1-388) with T312I
From the text: Plasmid encoding rat P2X4 (r4-WT) ([Royle et al., 2005]) was a kind gift from Ruth Murrell-Lagnado, whilst that encoding human P2X4 with a C-terminal (His)10 tag has been reported previously ([Young et al., 2008]). Plasmids containing rat P2X4 T312I (r4-T312I) and human P2X4 I312T mutants (h4-I312T) were generated using the QuikChange Lightning site-directed mutagenesis kit (Agilent) according to manufacturer’s instructions. Sequencing of the constructs and of the genomic DNA from stably transfected cells confirmed correct full coding sequences.
as §4, §5, §6

rP2X4 = settings: cited from earlier work
mP2X4 = settings: cited from earlier work
injury-induced allodynia = system: injury-induced allodynia; parameters: method as in Matsumura et al., 2016; Ushioda et al., 2020; settings: ref Matsumura et al., 2016; Ushioda et al., 2020; cited from earlier work
human P2X4 open channel = system: human P2X4 open channel; parameters: method as in Bidula et al. (2022); settings: ref Bidula et al. (2022); cited from earlier work
[5] = ref Hernandez-Olmos et al., 2012; cited from earlier work
[6] = approximate value for the series, ref Matsumura et al., 2016, Ushioda et al., 2020, read-out: IC50 at mouse P2X4
[7] = ref Hernandez-Olmost et al. (2012)

SMILES: O=C(NC(=S)Nc1c(Br)ccc(C(F)(F)F)c1Br)c1ccc2c(c1)OCO2 [Mahmood-9g]
IC50 (hP2X4; ref Mahmood et al. (2022b)): 55 nM

SMILES: Cc1ccc(S(=O)(=O)N2c3ccccc3Oc3ccccc32)cc1 [PSB-12062]
potency as P2X4 antagonist (in words) (P2X4): low micromolar range

ATP pEC50 (± SEM) [1]: 5.901 (± 0.0577) | EC50 [1]: 1260 nM | Hill coefficient (ATP concentration-response) [1]: 1.098 | ATP pEC50 (± SEM) [2]: 5.770 (± 0.0507) | EC50 [2]: 1700 nM | Hill coefficient (ATP concentration-response) [2]: 1.441 | ATP pEC50 (± SEM) [3]: 6.112 (± 0.028) | EC50 [3]: 770 nM | Hill coefficient (ATP concentration-response) [3]: 2.057 | ATP pEC50 (± SEM) [4]: 6.136 (± 0.0645) | EC50 [4]: 730 nM | Hill coefficient (ATP concentration-response) [4]: 2.475
SMILES: Nc1ncnc2c1ncn2[C@@H]1O[C@H](COP(=O)(O)OP(=O)(O)OP(=O)(O)O)[C@@H](O)[C@H]1O [ATP]

SMILES: Cc1c(-c2cccc(-c3nnn[nH]3)c2)c2[nH]c3ccccc3c2[nH]c1=O [Sunovion-A]
IC50 (hP2X4; ref Newcom and Spear (2013)): < 100 nM

SMILES: NS(=O)(=O)c1cc(NC(=O)Cc2ccccc2)ccc1Oc1cccc(Cl)c1 [BAY-1797, N-[4-(3-Chlorophenoxy)-3-sulfamoylphenyl]-2-phenylacetamide]
IC50 (rP2X4; ref Werner et al. (2019)): 100 nM | IC50 (mP2X4; ref Werner et al. (2019), read-out: mP2X4 IC50): 200 nM

SMILES: O=C1CC(=O)N(c2cccc(-c3noc(=S)[nH]3)c2)c2ccc3ccccc3c2N1 [NP-1815-PX]
IC50 (mP2X4; [6]): ~250 nM | effect in in vivo rodent model of injury-induced allodynia (injury-induced allodynia): anti-allodynic effect

SMILES: O=C1CN=C(c2cccc(Br)c2)c2oc3ccccc3c2N1 [5-BDBD]
IC50 (rP2X4; ref Abdelrahman et al. (2017)): 3470 nM | IC50 (rP2X4; ref Coddou et al. (2019)): 750 nM | IC50 (mP2X4; ref Abdelrahman et al. (2017), read-out: mP2X4 IC50): 2040 nM | capability of blocking the open channel (human P2X4 open channel): not

SMILES: CC(C)c1ccc(NC(=S)NC(=O)C23CC4CC(CC(C4)C2)C3)c(Br)c1 [Mahmood-4n]
IC50 (hP2X4; ref Mahmood et al. (2022a)): 40 nM

SMILES: O=C1CC(=O)N(c2ccc(NC(=O)c3ccccc3I)cc2)c2ccc3ccccc3c2N1 [NP-B]
IC50 (hP2X4; ref Matsumura et al., 2016, Ushioda et al., 2020): 430 nM | IC50 (mP2X4; [6]): ~250 nM | effect in in vivo rodent model of injury-induced allodynia (injury-induced allodynia): anti-allodynic effect

SMILES: CC(C)c1ccc(NC(=S)NC(=O)c2ccc3c(c2)OCO3)c(Br)c1 [Mahmood-9o]
IC50 (hP2X4; ref Mahmood et al. (2022b)): 39 nM

SMILES: O=C(C1CC1)N1CCc2cc(Br)c(S(=O)(=O)Nc3ccc(Cl)c(C(F)(F)F)c3)cc21 [Indophagolin]
IC50 (hP2X4; ref Carnero Corrales et al. (2021)): 140 nM

SMILES: O=C(OCc1ccccc1)N1c2ccccc2Oc2ccccc21 [PSB-12054]
IC50 (hP2X4; [7]): 190 nM | IC50 (rP2X4; [7]): 2100 nM | IC50 (mP2X4; ref Hernandez-Olmost et al. (2012), read-out: mP2X4 IC50): 1800 nM | potency as P2X4 antagonist (in words) (P2X4): low micromolar range | solubility (in words) [5]: partial solubility

SMILES: O=C1CC(=O)N(c2ccc(NS(=O)(=O)Cc3ccccc3Cl)cc2)c2ccc3ccccc3c2N1 [NP-A]
IC50 (mP2X4; [6]): ~250 nM | effect in in vivo rodent model of injury-induced allodynia (injury-induced allodynia): anti-allodynic effect
